# According to ChEMBL document CHEMBL4325854, “Synthetic small molecules as anti-biofilm agents in the struggle against antibiotic resistance” (Eur J Med Chem, 2019):
# How the values were obtained:
# [1] = system: Staphylococcus aureus; assay: Antibiofilm activity against Staphylococcus aureus isolate 702 at 1.5 ug/ml relative to control; type: functional
# [2] = system: Staphylococcus aureus; assay: Antibiofilm activity against Staphylococcus aureus isolate 657 at 1.5 ug/ml relative to control; type: functional
# [3] = system: Staphylococcus epidermidis; assay: Antibiofilm activity against Staphylococcus epidermidis RP62A at 1.5 ug/ml relative to control; type: functional
# [4] = system: Staphylococcus aureus; assay: Antibiofilm activity against Staphylococcus aureus ATCC 29213 at 1.5 ug/ml relative to control; type: functional
# [5] = system: Staphylococcus epidermidis; assay: Antibiofilm activity against Staphylococcus epidermidis DSM 3269 at 1.5 ug/ml relative to control; type: functional
# [6] = system: Staphylococcus aureus; assay: Antibiofilm activity against Staphylococcus aureus ATCC 25923 at 1.5 ug/ml relative to control; type: functional
# [7] = target: T1, Sortase A (Staphylococcus aureus, UniProt Q9S446); assay: Inhibition of Staphylococcus aureus SrtA
# T1 sequence (Q9S446 whole entry): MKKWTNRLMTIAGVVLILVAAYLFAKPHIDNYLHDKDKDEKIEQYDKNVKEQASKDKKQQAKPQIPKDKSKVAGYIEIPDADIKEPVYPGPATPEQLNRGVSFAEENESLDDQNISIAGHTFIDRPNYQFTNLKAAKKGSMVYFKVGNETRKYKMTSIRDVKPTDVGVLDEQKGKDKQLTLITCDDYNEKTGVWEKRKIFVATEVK
# [8] = system: Staphylococcus aureus; assay: Antibiofilm activity against Staphylococcus aureus at 100 uM relative to control; type: functional
# [9] = system: Staphylococcus aureus; assay: Antibiofilm activity against Staphylococcus aureus BAA-1026; type: functional
# [10] = system: Enterococcus faecalis; assay: Antibiofilm activity against Enterococcus faecalis ATCC 29212; type: functional
# [11] = system: Staphylococcus aureus; assay: Antibiofilm activity against methicillin-resistant Staphylococcus aureus; type: functional, organism-based; conditions: Staphylococcus aureus
# [12] = system: Acinetobacter baumannii; assay: Antibiofilm activity against Acinetobacter baumannii preformed biofilms; type: functional, organism-based
# [13] = system: Pseudomonas aeruginosa; assay: Antibiofilm activity against Pseudomonas aeruginosa PA14 assessed as inhibition of biofilm dispersion; type: functional, organism-based
# [14] = system: Pseudomonas aeruginosa; assay: Antibiofilm activity against Pseudomonas aeruginosa PAO1 assessed as inhibition of biofilm dispersion; type: functional, organism-based
# [15] = system: Staphylococcus epidermidis; assay: Antibiofilm activity against Staphylococcus epidermidis at 25 ug/ml relative to control; type: functional
# [16] = system: Staphylococcus aureus; assay: Antibiofilm activity against Staphylococcus aureus ATCC 29213 at 25 ug/ml relative to control; type: functional
# [17] = system: Staphylococcus aureus; assay: Synergistic antibacterial activity against methicillin-resistant Staphylococcus aureus assessed as fold reduction in penicillin G MIC; type: functional
# [18] = system: Staphylococcus aureus; assay: Synergistic antibacterial activity against methicillin-resistant Staphylococcus aureus assessed as fold reduction in oxacillin MIC; type: functional
# [19] = system: Staphylococcus aureus; assay: Antibiofilm activity against methicillin-resistant Staphylococcus aureus isolate 2; type: functional
# [20] = system: Staphylococcus aureus; assay: Antibiofilm activity against methicillin-resistant Staphylococcus aureus BAA-1707; type: functional
# [21] = system: Staphylococcus aureus; assay: Antibiofilm activity against methicillin-resistant Staphylococcus aureus ATCC BAA-44; type: functional, organism-based
# [22] = system: Bordetella bronchiseptica; assay: Antibiofilm activity against Bordetella bronchiseptica RB50 assessed as inhibition of biofilm dispersion; type: functional, organism-based
# [23] = system: Staphylococcus aureus; assay: Antibiofilm activity against Staphylococcus aureus ATCC 29213; type: functional, organism-based
structure (smiles),measurement,setting,value
O=C(c1cc(Br)ccc1O)c1[nH]c(Br)c(Br)c1Br,Activity,[1],>60%
same,Activity,[2],>60%
same,Activity,[3],>60%
same,Activity,[4],>60%
same,Activity,[5],>60%
same,Activity,[6],>60%
CCOC(=O)/C(=N/Nc1ccccc1)C(C)=O,IC50,[7],192 µM
CC(=O)/C(=N\Nc1ccccc1)C(=O)O,IC50,[7],50 to 92 µM
same,Activity,[8],39.2 - 68.3%
c1ccc(-c2csc(-c3ccc(-c4csc(-c5ccccc5)n4)cc3)n2)cc1,MBEC,[9],1000 µg/mL
same,MBEC,[10],2 µg/mL
CCCCCCCCCCCCCCNC(=O)Cn1cc(C[C@@]23CNC[C@@H]2Nc2ccccc23)nn1,IC50,[11],5.4 µM
CCCc1ccc(-c2[nH]c(N)nc2CCCCCc2cn(C/C(C)=C/c3ccccc3)nn2)cc1,IC50,[12],11.3 µM
same,IC50,[11],1.42 µM
CCCCCCCCNC(=O)CCCc1c[nH]c(N)n1,IC50,[13],13.3 µM
same,IC50,[14],18.4 µM
O=C(c1cc(Cl)cc(Cl)c1O)c1[nH]c(Cl)c(Cl)c1Cl,Activity,[1],>60%
same,Activity,[2],>60%
same,Activity,[3],>60%
same,Activity,[4],>60%
same,Activity,[5],>60%
same,Activity,[6],>60%
CC(=O)/C(=N\Nc1cccc(Cl)c1)C(=O)O,IC50,[7],50 to 92 µM
same,Activity,[8],39.2 - 68.3%
O=C(c1cc(Br)c(F)[nH]1)c1cc(Cl)cc(Cl)c1O,Activity,[1],>60%
same,Activity,[2],>60%
same,Activity,[3],>60%
same,Activity,[4],>60%
same,Activity,[5],>60%
same,Activity,[6],>60%
N#Cc1ccc(-c2csc(-c3ccc(-c4csc(-c5ccccc5)n4)cc3)n2)cc1,MBEC,[9],250 µg/mL
same,MBEC,[10],2 µg/mL
Cc1nn(C)c([N-]C(=O)c2ccc(Cl)cc2Cl)c1[N+]#N,Activity,[15],69 - 96%
same,Activity,[16],69 - 96%
O=C(c1cc(Br)ccc1O)c1[nH]c(Br)c(Cl)c1Br,Activity,[1],>60%
same,Activity,[2],>60%
same,Activity,[3],>60%
same,Activity,[4],>60%
same,Activity,[5],>60%
same,Activity,[6],>60%
CCCCCCCc1ccc(NC(=O)CCn2cc(C[C@@]34CNC[C@@H]3Nc3ccccc34)nn2)cc1,IC50,[11],2.8 µM
CCCCCc1cccc(C(=O)NCCNC(=O)CCCCCc2cnc(N)[nH]2)c1,fold change (FC),[17],16
same,IC50,[11],6.5 µg/mL
same,fold change (FC),[18],64
C/C(=C\c1cccc2ccccc12)Cn1cc(CCCCCc2c[nH]c(N)n2)nn1,EC50,[12],44.7 to 59.6 µM
same,EC50,[11],4.5 to 9.8 µM
Cc1ccc2c(Br)cc(Br)c(O)c2n1 [BROQUINALDOL],MBEC,[19],188 µM
same,MBEC,[20],93 µM
CC(=O)/C(=N\Nc1ccc(Cl)c(Cl)c1)C(=O)O,IC50,[7],50 to 92 µM
same,Activity,[8],39.2 - 68.3%
O=C1NC(C(Cl)(Cl)Cc2ccccc2)O/C1=C\c1ccc(C(F)(F)F)cc1 (configuration not stated),IC50,[21],1.2 µM
Nc1nc(CCCNC(=O)c2cc(Br)c(Br)n2-c2ccc(Br)cc2)c[nH]1,IC50,[13],16.4 µM
same,IC50,[22],29.3 µM
c1ccc(-c2nc(-c3ccc(-c4nc(-c5cccc6ccccc56)cs4)cc3)cs2)cc1,MBEC,[9],250 µg/mL
same,MBEC,[10],4 µg/mL
CCCCc1ccc(C(=O)NCCn2cc(CCCCc3[nH]c(N)nc3-c3ccoc3)nn2)cc1,IC50,[11],7.2 µM
CCCCCCCCCCNC(=O)CCCc1c[nH]c(N)n1,IC50,[13],6 µM
same,IC50,[14],8 µM
CCCCc1ccc(C(=O)NCCn2cc(CCCCc3[nH]c(N)nc3-c3ccc4c(c3)OCO4)nn2)cc1,IC50,[11],3.7 µM
CCOC(=O)/C(=N/Nc1ccc(Cl)c(Cl)c1)C(=O)c1cc(C)nn1CC,IC50,[23],1.7 µM
CCCCCCNC(=O)CCCc1c[nH]c(N)n1,IC50,[13],39.9 µM
same,IC50,[14],32.7 µM
